From ChEMBL document CHEMBL1201861, “Genomics of Drug Sensitity in Cancer screening data, Wellcome Trust Sanger Institute”

What was measured:
Test in all cases: cells
ATN-1 = format: functional, cell-based; conditions: Homo sapiens;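 note: growth inhibition of human ATN-1 cells, read out with a cell viability assay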
Description: SANGER: Inhibition of human ATN-1 cell growth in a cell viability assay.

Huh-7 = format: functional, cell-based, Homo sapiens; conditions: Homo sapiens, Huh-7;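 note: HuH-7 cell growth inhibition, read out with a cell viability assay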
Description: SANGER: Inhibition of human HuH-7 cell growth in a cell viability assay.

KARPAS-45 = format: functional, cell-based; conditions: Homo sapiens;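 note: inhibition of cell line growth, read out through a viability assay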
Description: SANGER: Inhibition of human KARPAS-45 cell growth in a cell viability assay.

MZ1-PC = format: functional, cell-based, Homo sapiens; conditions: Homo sapiens, MZ1-PC;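 note: cell viability assay measuring growth inhibition of human MZ1-PC cells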
Description: SANGER: Inhibition of human MZ1-PC cell growth in a cell viability assay.

KNS-42 = format: functional, cell-based, Homo sapiens; conditions: Homo sapiens, KNS-42;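 note: growth inhibition of KNS-42 cells, read out with a cell viability assay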
Description: SANGER: Inhibition of human KNS-42 cell growth in a cell viability assay.

NCI-H1581 = format: functional, cell-based, Homo sapiens; conditions: Homo sapiens, NCI-H1581;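 note: cell growth inhibition read out by a viability assay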
Description: SANGER: Inhibition of human NCI-H1581 cell growth in a cell viability assay.

RCM-1 = format: functional, cell-based, Homo sapiens; conditions: Homo sapiens, RCM-1;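 note: growth inhibition of the RCM-1 line, determined with a cell viability readout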
Description: SANGER: Inhibition of human RCM-1 cell growth in a cell viability assay.

SJSA-1 = format: functional, cell-based, Homo sapiens; conditions: Homo sapiens, SJSA-1;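 note: growth inhibition of human SJSA-1 cells, read out through a cell viability measurement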
Description: SANGER: Inhibition of human SJSA-1 cell growth in a cell viability assay.

GCT = format: functional, cell-based, Homo sapiens; conditions: Homo sapiens, GCT;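 note: GCT cell line proliferation inhibition, read out with a cell viability assay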
Description: SANGER: Inhibition of human GCT cell growth in a cell viability assay.

NCI-H1792 = format: functional, cell-based, Homo sapiens; conditions: Homo sapiens, NCI-H1792;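 note: growth inhibition of human NCI-H1792 cells, read out as cell viability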
Description: SANGER: Inhibition of human NCI-H1792 cell growth in a cell viability assay.

LC-2-ad = format: functional, cell-based, Homo sapiens; conditions: Homo sapiens, LC-2-ad;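 note: growth inhibition of human LC-2-ad cells, read out with a cell viability assay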
Description: SANGER: Inhibition of human LC-2-ad cell growth in a cell viability assay.

SHP77 = format: functional, cell-based, Homo sapiens, SHP-77; conditions: Homo sapiens, SHP77;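 note: growth inhibition of human SHP-77 cells measured by a cell viability assay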
Description: SANGER: Inhibition of human SHP-77 cell growth in a cell viability assay.

SH-4 = format: functional, cell-based, Homo sapiens; conditions: Homo sapiens, SH-4;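 note: growth inhibition of SH-4 cells, read out with a cell viability assay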
Description: SANGER: Inhibition of human SH-4 cell growth in a cell viability assay.

A-431 = format: functional, cell-based, Homo sapiens; conditions: Homo sapiens, A-431;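 note: growth inhibition of A-431 cells, determined with a cell viability read-out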
Description: SANGER: Inhibition of human A431 cell growth in a cell viability assay.

CAL-12T = format: functional, cell-based, Homo sapiens; conditions: Homo sapiens, CAL-12T;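 note: growth inhibition of human CAL-12T cells, read out with a cell viability assay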
Description: SANGER: Inhibition of human CAL-12T cell growth in a cell viability assay.

SW626 = format: functional, cell-based, Homo sapiens; conditions: Homo sapiens, SW626;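 note: growth inhibition of SW626 cells, measured with a cell viability assay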
Description: SANGER: Inhibition of human SW626 cell growth in a cell viability assay.

KYSE-150 cell line = format: functional, cell-based, Homo sapiens; conditions: Homo sapiens, KYSE-150;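 note: growth inhibition of human KYSE-150 cells, read out with a cell viability assay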
Description: SANGER: Inhibition of human KYSE-150 cell growth in a cell viability assay.

SK-UT-1 = format: functional, cell-based, Homo sapiens; conditions: Homo sapiens, SK-UT-1;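 note: growth inhibition of SK-UT-1 cells, measured by a cell viability assay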
Description: SANGER: Inhibition of human SK-UT-1 cell growth in a cell viability assay.

DU-4475 = format: functional, cell-based; conditions: Homo sapiens
Description: SANGER: Inhibition of human DU-4475 cell growth in a cell viability assay.

KLE = format: functional, cell-based, Homo sapiens; conditions: Homo sapiens, KLE;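 note: growth inhibition of human KLE cells, read out with a cell viability assay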
Description: SANGER: Inhibition of human KLE cell growth in a cell viability assay.

SW-620 = format: functional, cell-based, Homo sapiens; conditions: Homo sapiens, SW-620;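 note: growth inhibition of human SW-620 cells, measured by a cell viability assay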
Description: SANGER: Inhibition of human SW620 cell growth in a cell viability assay.

SW756 = format: functional, cell-based, Homo sapiens; conditions: Homo sapiens, SW756;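 note: growth inhibition of human SW756 cells, read out with a cell viability assay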
Description: SANGER: Inhibition of human SW756 cell growth in a cell viability assay.

ABC-1 = format: functional, cell-based, Homo sapiens; conditions: Homo sapiens, ABC-1;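 note: growth inhibition of human ABC-1 cells, read out by a cell viability assay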
Description: SANGER: Inhibition of human ABC-1 cell growth in a cell viability assay.

RPMI-2650 = format: functional, cell-based, Homo sapiens; conditions: Homo sapiens, RPMI-2650
Description: SANGER: Inhibition of human RPMI-2650 cell growth in a cell viability assay.

TE-12 = format: functional, cell-based; conditions: Homo sapiens;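 note: growth inhibition of TE-12 cells, read out by a cell viability assay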
Description: SANGER: Inhibition of human TE-12 cell growth in a cell viability assay.

EW-24 = format: functional, cell-based; conditions: Homo sapiens;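 note: human EW-24 cancer cell line, growth inhibition read out via a cell viability assay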
Description: SANGER: Inhibition of human EW-24 cell growth in a cell viability assay.

SW 962 = format: functional, cell-based, Homo sapiens; conditions: Homo sapiens, SW 962;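 note: growth inhibition of human SW962 cells, read out by a cell viability assay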
Description: SANGER: Inhibition of human SW962 cell growth in a cell viability assay.

HPAF-II = format: functional, cell-based, Homo sapiens; conditions: Homo sapiens, HPAF-II;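 note: growth inhibition of HPAF-II cells, read out with a cell viability assay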
Description: SANGER: Inhibition of human HPAF-II cell growth in a cell viability assay.

ES7 = format: functional, cell-based, Homo sapiens; conditions: Homo sapiens, ES7;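 note: growth inhibition of cultured human ES7 cells, read out as cell viability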
Description: SANGER: Inhibition of human ES7 cell growth in a cell viability assay.

EKVX = format: functional, cell-based, Homo sapiens; conditions: Homo sapiens, EKVX;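 note: growth inhibition of human EKVX cells, read out with a cell viability assay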
Description: SANGER: Inhibition of human EKVX cell growth in a cell viability assay.

LU-139 = format: functional, cell-based; conditions: Homo sapiens
Description: SANGER: Inhibition of human LU-139 cell growth in a cell viability assay.

EW-13 = format: functional, cell-based; conditions: Homo sapiens;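 note: growth inhibition of EW-13 cells, read out with a cell viability assay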
Description: SANGER: Inhibition of human EW-13 cell growth in a cell viability assay.

SF-126 = format: functional, cell-based, Homo sapiens; conditions: Homo sapiens, SF-126;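 note: growth inhibition of human SF126 cells, read out with a cell viability assay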
Description: SANGER: Inhibition of human SF126 cell growth in a cell viability assay.

J-RT3-T3-5 = format: functional, cell-based; conditions: Homo sapiens;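 note: cell viability assay measuring growth inhibition of human J-RT3-T3-5 cells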
Description: SANGER: Inhibition of human J-RT3-T3-5 cell growth in a cell viability assay.

KYSE-520 cell line = format: functional, cell-based, Homo sapiens; conditions: Homo sapiens, KYSE-520;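 note: growth inhibition of human KYSE-520 cells, read out with a viability assay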
Description: SANGER: Inhibition of human KYSE-520 cell growth in a cell viability assay.

AGS = format: functional, cell-based, Homo sapiens; conditions: Homo sapiens, AGS;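 note: growth inhibition of AGS cells, determined with a cell viability assay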
Description: SANGER: Inhibition of human AGS cell growth in a cell viability assay.

D-392MG = format: functional, cell-based, Homo sapiens; conditions: Homo sapiens, D-392MG
HLE = format: functional, cell-based, Homo sapiens; conditions: Homo sapiens, HLE;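 note: growth inhibition of human HLE cells, read out by a cell viability assay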
Description: SANGER: Inhibition of human HLE cell growth in a cell viability assay.

MZ2-MEL = format: functional, cell-based, Homo sapiens; conditions: Homo sapiens, MZ2-MEL;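 note: growth inhibition of MZ2-MEL cells read out with a cell viability assay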
Description: SANGER: Inhibition of human MZ2-MEL cell growth in a cell viability assay.

MKN-28 = format: functional, cell-based, Homo sapiens; conditions: Homo sapiens, MKN-28;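 note: cell viability assay read-out, IC50 reflects suppression of growth of human MKN-28 cells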
Description: SANGER: Inhibition of human MKN28 cell growth in a cell viability assay.

COLO-320-HSR = format: functional, cell-based; conditions: Homo sapiens;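 note: growth inhibition of COLO-320-HSR cells, determined with a cell viability assay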
Description: SANGER: Inhibition of human COLO-320-HSR cell growth in a cell viability assay.

GR-ST = format: functional, cell-based; conditions: Homo sapiens
Description: SANGER: Inhibition of human GR-ST cell growth in a cell viability assay.

SW13 = format: functional, cell-based, Homo sapiens; conditions: Homo sapiens, SW13;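 note: IC50 is inhibition of SW13 cell growth, read out with a cell viability assay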
Description: SANGER: Inhibition of human SW13 cell growth in a cell viability assay.

NCI-H2228 = format: functional, cell-based, Homo sapiens; conditions: Homo sapiens, NCI-H2228;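 note: growth inhibition of human NCI-H2228 cells, read out by a cell viability assay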
Description: SANGER: Inhibition of human NCI-H2228 cell growth in a cell viability assay.

HT = format: functional, cell-based; conditions: Homo sapiens
Description: SANGER: Inhibition of human HT cell growth in a cell viability assay.

OVCAR-4 = format: functional, cell-based, Homo sapiens; conditions: Homo sapiens, OVCAR-4;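 note: growth inhibition of human OVCAR-4 cells, measured with a cell viability assay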
Description: SANGER: Inhibition of human OVCAR-4 cell growth in a cell viability assay.

C-33-A = format: functional, cell-based, Homo sapiens; conditions: Homo sapiens, C-33-A;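 note: cell viability assay measuring growth inhibition of C-33-A cells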
Description: SANGER: Inhibition of human C-33-A cell growth in a cell viability assay.

MEG-01 = format: functional, cell-based; conditions: Homo sapiens;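 note: growth inhibition of MEG-01 cells, read out by a cell viability assay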
Description: SANGER: Inhibition of human MEG-01 cell growth in a cell viability assay.

COR-L105 = format: functional, cell-based, Homo sapiens; conditions: Homo sapiens, COR-L105;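 note: cell growth inhibition determined with a viability assay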
Description: SANGER: Inhibition of human COR-L105 cell growth in a cell viability assay.

RS4-11 = format: functional, cell-based; conditions: Homo sapiens;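 note: growth inhibition of RS4-11 cells, read out by a cell viability assay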
Description: SANGER: Inhibition of human RS4-11 cell growth in a cell viability assay.

SCH = format: functional, cell-based, Homo sapiens; conditions: Homo sapiens, SCH;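 note: growth inhibition of human SCH cells, read out in a cell viability assay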
Description: SANGER: Inhibition of human SCH cell growth in a cell viability assay.

SK-MEL-28 = format: functional, cell-based; conditions: Homo sapiens;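 note: growth inhibition of human SK-MEL-28 cells, read out with a cell viability assay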
Description: SANGER: Inhibition of human SK-MEL-28 cell growth in a cell viability assay.

Cn1cncc1[C@@](N)(c1ccc(Cl)cc1)c1ccc2c(c1)c(-c1cccc(Cl)c1)cc(=O)n2C [TIPIFARNIB]
IC50 (ATN-1): 2.54 µM
IC50 (Huh-7): 6.05 µM
IC50 (KARPAS-45): 12.9 µM
IC50 (MZ1-PC): 2.82 µM
IC50 (KNS-42): 5.76 µM
IC50 (NCI-H1581): > 16 µM
IC50 (RCM-1): > 16 µM
IC50 (SJSA-1): > 16 µM
IC50 (GCT): > 16 µM
IC50 (NCI-H1792): > 16 µM
IC50 (LC-2-ad): 1.49 µM
IC50 (SHP77): 9.94 µM
IC50 (SH-4): 1.3 µM
IC50 (A-431): 0.655 µM
IC50 (CAL-12T): 0.76 µM
IC50 (SW626): 1.37 µM
IC50 (KYSE-150 cell line): 6.2 µM
IC50 (SK-UT-1): 4.86 µM
IC50 (DU-4475): 2.19 µM
IC50 (KLE): 8.91 µM
IC50 (SW-620): 0.482 µM
IC50 (SW756): 13.6 µM
IC50 (ABC-1): 3.21 µM
IC50 (RPMI-2650): 8.29 µM
IC50 (TE-12): 2.82 µM
IC50 (EW-24): > 16 µM
IC50 (SW 962): 2.15 µM
IC50 (HPAF-II): 7.57 µM
IC50 (ES7): 1.47 µM
IC50 (EKVX): > 16 µM
IC50 (LU-139): > 16 µM
IC50 (EW-13): 6.48 µM
IC50 (SF-126): 3.88 µM
IC50 (J-RT3-T3-5): 1.32 µM
IC50 (KYSE-520 cell line): > 16 µM
IC50 (AGS): 4.53 µM
IC50 (D-392MG): > 16 µM
IC50 (HLE): 0.448 µM
IC50 (MZ2-MEL): 1.9 µM
IC50 (MKN-28): 1.44 µM
IC50 (COLO-320-HSR): 13.6 µM
IC50 (GR-ST): 2.87 µM
IC50 (SW13): 3.6 µM
IC50 (NCI-H2228): 4.98 µM
IC50 (HT): 8.29 µM
IC50 (OVCAR-4): 2.21 µM
IC50 (C-33-A): 4.49 µM
IC50 (MEG-01): 3.61 µM
IC50 (COR-L105): 7.24 µM
IC50 (RS4-11): 1.94 µM
IC50 (SCH): > 16 µM
IC50 (SK-MEL-28): > 16 µM

Cc1cnc(-c2cnc(NCCNc3ccc(C#N)cn3)nc2-c2ccc(Cl)cc2Cl)[nH]1 [LADUVIGLUSIB]
IC50 (ATN-1): > 2.56 µM
IC50 (Huh-7): > 2.56 µM
IC50 (KARPAS-45): > 2.56 µM
IC50 (MZ1-PC): > 2.56 µM
IC50 (KNS-42): > 2.56 µM
IC50 (NCI-H1581): > 2.56 µM
IC50 (RCM-1): > 2.56 µM
IC50 (SJSA-1): > 2.56 µM
IC50 (GCT): 0.307 µM
IC50 (NCI-H1792): > 2.56 µM
IC50 (LC-2-ad): > 2.56 µM
IC50 (SHP77): > 2.56 µM
IC50 (SH-4): > 2.56 µM
IC50 (A-431): > 2.56 µM
IC50 (CAL-12T): > 2.56 µM
IC50 (SW626): > 2.56 µM
IC50 (KYSE-150 cell line): > 2.56 µM
IC50 (SK-UT-1): > 2.56 µM
IC50 (DU-4475): > 2.56 µM
IC50 (KLE): > 2.56 µM
IC50 (SW-620): > 2.56 µM
IC50 (SW756): > 2.56 µM
IC50 (ABC-1): > 2.56 µM
IC50 (RPMI-2650): > 2.56 µM
IC50 (TE-12): > 2.56 µM
IC50 (EW-24): > 2.56 µM
IC50 (SW 962): > 2.56 µM
IC50 (HPAF-II): > 2.56 µM
IC50 (ES7): > 2.56 µM
IC50 (EKVX): > 2.56 µM
IC50 (LU-139): > 2.56 µM
IC50 (EW-13): > 2.56 µM
IC50 (SF-126): > 2.56 µM
IC50 (J-RT3-T3-5): > 2.56 µM
IC50 (KYSE-520 cell line): > 2.56 µM
IC50 (AGS): > 2.56 µM
IC50 (D-392MG): > 2.56 µM
IC50 (HLE): > 2.56 µM
IC50 (MZ2-MEL): > 2.56 µM
IC50 (MKN-28): > 2.56 µM
IC50 (COLO-320-HSR): > 2.56 µM
IC50 (GR-ST): > 2.56 µM
IC50 (SW13): > 2.56 µM
IC50 (NCI-H2228): > 2.56 µM
IC50 (HT): > 2.56 µM
IC50 (OVCAR-4): > 2.56 µM
IC50 (C-33-A): > 2.56 µM
IC50 (MEG-01): > 2.56 µM
IC50 (COR-L105): > 2.56 µM
IC50 (RS4-11): 1.95 µM
IC50 (SCH): > 2.56 µM
IC50 (SK-MEL-28): > 2.56 µM

O=C(NOCC1CC1)c1ccc(F)c(F)c1Nc1ccc(I)cc1Cl [CI-1040]
IC50 (ATN-1): > 10 µM
IC50 (Huh-7): 5.27 µM
IC50 (KARPAS-45): > 10 µM
IC50 (MZ1-PC): > 10 µM
IC50 (KNS-42): > 10 µM
IC50 (NCI-H1581): 8.26 µM
IC50 (RCM-1): 1.24 µM
IC50 (SJSA-1): > 10 µM
IC50 (GCT): > 10 µM
IC50 (NCI-H1792): 9.45 µM
IC50 (LC-2-ad): > 10 µM
IC50 (SHP77): > 10 µM
IC50 (SH-4): 0.463 µM
IC50 (A-431): 6.24 µM
IC50 (CAL-12T): 8.66 µM
IC50 (SW626): 4.04 µM
IC50 (KYSE-150 cell line): > 10 µM
IC50 (SK-UT-1): 8.98 µM
IC50 (DU-4475): 0.076 µM
IC50 (KLE): > 10 µM
IC50 (SW-620): 1.14 µM
IC50 (SW756): > 10 µM
IC50 (ABC-1): > 10 µM
IC50 (RPMI-2650): > 10 µM
IC50 (TE-12): 9.03 µM
IC50 (EW-24): > 10 µM
IC50 (SW 962): > 10 µM
IC50 (HPAF-II): 3.75 µM
IC50 (ES7): > 10 µM
IC50 (EKVX): > 10 µM
IC50 (LU-139): > 10 µM
IC50 (EW-13): 2.56 µM
IC50 (SF-126): > 10 µM
IC50 (J-RT3-T3-5): > 10 µM
IC50 (KYSE-520 cell line): > 10 µM
IC50 (AGS): 0.117 µM
IC50 (D-392MG): > 10 µM
IC50 (HLE): > 10 µM
IC50 (MZ2-MEL): 2.11 µM
IC50 (MKN-28): > 10 µM
IC50 (COLO-320-HSR): > 10 µM
IC50 (GR-ST): 7.4 µM
IC50 (SW13): > 10 µM
IC50 (NCI-H2228): > 10 µM
IC50 (HT): > 10 µM
IC50 (OVCAR-4): > 10 µM
IC50 (C-33-A): > 10 µM
IC50 (MEG-01): 9.25 µM
IC50 (COR-L105): 6.65 µM
IC50 (RS4-11): 5.67 µM
IC50 (SCH): > 10 µM
IC50 (SK-MEL-28): 0.304 µM
